The record followed here is patent publication US20210139517A1, “BICYCLIC HETEROARYL COMPOUNDS AND USES THEREOF” (Revolution Medicines, Inc., priority 2019, published 2021).

The subject of test [1] is SOS1 function in cells: cellular pERK in PC-9 cells (EGFR Ex19Del). The experiment in a line: pERK potency assay in PC-9 cells (AlphaLISA SureFire Ultra p-ERK1/2). It is filed as cell-based. The conditions noted are these: Homo sapiens, PC-9, 1 h, 1 hour incubation. As to the method: The purpose of this assay is tomeasure the ability of test compounds to inhibit SOS1 function in cells. SOS1 activates RAS proteins by catalyzing the conversion of RAS-GDP to RAS-GTP in response to receptor tyrosine kinase activation. […] The procedure described below measures the level of cellular pERK in response to test compounds in PC-9 cells (EGFR Ex19Del).
PC-9 cells were grown and maintained using media and procedures recommended by the ATCC. On the day prior to compound addition, cells were plated in 384-well cell culture plates (40 μL/well) and grown overnight in a 37° C., 5% CO2 incubator. Test compounds were prepared in 10, 3-fold dilutions in DMSO, with a top concentration of 10 mM. On the day of the assay, 40 nL of test compound was added to each well of cell culture plate using an Echo550 liquid handler (LabCyte). Concentrations of test compound were tested in duplicate with highest test concentration being 10 μM. After compound addition, cells were incubated for 1 hour at 37° C., 5% CO2. Following incubation, culture medium was removed and cells were washed once with phosphate buffered saline.
Cellular pERK level was determined using the AlphaLISA SureFire Ultra p-ERK1/2 Assay Kit (PerkinElmer). Cells were lysed in 25 μL lysis buffer, with shaking at 600 RPM at room temperature for 15 minutes. Lysate (10 μL) was transferred to a 384-well Opti-plate (PerkinElmer) and 5 μL acceptor mix was added. The plate was centrifuged at 1000 RPM for 1 minute, and incubated in the dark for 2 hours. Following this incubation, 5 μL of donor mix was added, the plate was sealed and centrifuged at 1000 RPM for 1 minute, and the mixture was incubated for 2 hours at room temperature. Signal was read on an Envision plate reader (PerkinElmer) using standard AlphaLISA settings. Analysis of raw data was carried out in Excel (Microsoft) and Prism (GraphPad). Signal was plotted vs. the decadal logarithm of compound concentration, and IC50 was determined by fitting a 4-parameter sigmoidal concentration response model.

The target of test [2] is T1, SOS1 nucleotide exchange of wild-type KRAS (SOS1 catalytic domain residues 564-1049; KRAS residue 1-169) (Homo sapiens, UniProt Q07889).
T1 sequence (Q07889 564-1049): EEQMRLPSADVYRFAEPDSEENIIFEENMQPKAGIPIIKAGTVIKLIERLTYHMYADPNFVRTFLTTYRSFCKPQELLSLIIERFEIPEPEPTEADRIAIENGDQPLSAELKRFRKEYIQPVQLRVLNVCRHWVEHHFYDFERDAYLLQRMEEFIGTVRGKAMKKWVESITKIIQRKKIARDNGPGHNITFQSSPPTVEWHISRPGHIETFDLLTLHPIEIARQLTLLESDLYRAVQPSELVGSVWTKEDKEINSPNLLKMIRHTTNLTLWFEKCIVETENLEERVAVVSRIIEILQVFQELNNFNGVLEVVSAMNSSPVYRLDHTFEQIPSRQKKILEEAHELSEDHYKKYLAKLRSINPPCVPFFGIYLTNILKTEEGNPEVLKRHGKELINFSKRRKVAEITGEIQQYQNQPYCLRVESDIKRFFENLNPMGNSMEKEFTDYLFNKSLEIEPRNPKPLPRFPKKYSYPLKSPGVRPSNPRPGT
Put plainly: Inhibition of SOS1 nucleotide exchange activity of KRAS (TR-FRET). The conditions noted are these: SOS1 nucleotide exchange of wild-type KRAS; three replicates; four-parameter logistic fit; read-out: TR-FRET IC50. It is filed as biochemical.

Test [3] addresses T2, SOS1 catalytic domain (residues 564-1049) (Homo sapiens, UniProt Q07889).
T2 sequence (Q07889 564-1049): T1 sequence (Q07889 564-1049)
The experiment in a line: SOS1 SPR binding affinity assay (Biacore 8K). The note with it: avi-tagged SOS1 catalytic domain immobilized on streptavidin chip; equilibrium 1:1 binding fit; read-out: SOS1 SPR Equilibrium Kd. (In general: SPR reads the build-up and loss of mass on a sensor chip optically.)

What is called IC50 is the concentration needed to halve the response being measured. By Kd is commonly meant the equilibrium constant for the complex coming apart. As for `C[C@@H](Nc1ncnc2c1cc(N1CCOCC1)c(=O)n2C)c1cc(N)cc(C(F)(F)F)c1` [Example 12, 4-{[(1R)-1-[3-amino-5-(trifluoromethyl)phenyl]ethyl]amino}-8-methyl-6-(morpholin-4-yl)-7H,8H-pyrido[2,3-d]pyrimidin-7-one], the figures for the IC50 in test [1] and in test [2] were 101 nM and 13.6 nM, respectively. The Kd in test [3] worked out at 7.94 nM.
For `Cc1nc(N[C@H](C)c2cccc(C(F)F)c2F)c2cc(C3CCN(C)CC3F)c(=O)n(C)c2n1` (stereo partly drawn) [Example 18, 4-[[(1R)-1-[3-(difluoromethyl)-2-fluoro-phenyl]ethyl]amino]-6-(3-fluoro-1-methyl-4-piperidyl)-2,8-dimethyl-pyrido[2,3-d]pyrimidin-7-one] the same measures were 190 nM, 5.79 nM and 16 nM.
For `C[C@@H](Nc1ncnc2c1cc(-c1ccnnc1)c(=O)n2C)c1cccc(C(F)F)c1F` [Example 21, (R)-4-((1-(3-(difluoromethyl)-2-fluorophenyl)ethyl)amino)-8-methyl-6-(pyridazin-4-yl)pyrido[2,3-d]pyrimidin-7(8H)-one] the same measures were 136 nM, 18 nM and 32.7 nM.
Consider `CC(=O)N1CCC(c2cc3c(N[C@H](C)c4cc(N)cc(C(F)(F)F)c4F)ncnc3n(C)c2=O)CC1` [Example 19, 6-(1-acetyl-4-piperidyl)-4-[[(1R)-1-[5-amino-2-fluoro-3-(trifluoromethyl)phenyl]ethyl]amino]-8-methyl-pyrido[2,3-d]pyrimidin-7-one], for which the IC50 in test [1] was found to be 49.2 nM; in test [2] it was 12.3 nM. In addition, the Kd in test [3] was found to be 32.4 nM.
Consider `C[C@@H](Nc1ncnc2c1cc(N1CCOCC1)c(=O)n2C)c1cccc(C(F)(F)F)c1` [Example 13, 8-methyl-6-(morpholin-4-yl)-4-{[(1R)-1-[3-(trifluoromethyl)phenyl]-ethyl]amino}-7H,8H-pyrido[2,3-d]pyrimidin-7-one], for which the IC50 in test [1] worked out at 321 nM; in test [2], 29.4 nM. The Kd in test [3] was 28.3 nM.
For `CC(=O)N1CCC(c2cc3c(N[C@H](C)c4cc(C(F)(F)F)cc(N)c4F)ncnc3n(C)c2=O)CC1` [Example 15, 6-(1-acetyl-4-piperidyl)-4-[[(1R)-1-[3-amino-2-fluoro-5-(trifluoromethyl)phenyl]ethyl]amino]-8-methyl-pyrido[2,3-d]pyrimidin-7-one] the same measures were 391 nM, 90.4 nM and 168 nM.
